US6465655B1, “Antibody to and assay for peptide linked-pyridinoline as indicator of bone resorption level” (Serex, Inc., priority 1997, dated 2002)

Tested on: Serex 51A93
Assay: ELISA plate inhibition studies of Serex 51A93 by calibrators (Osteomark BCE, Metra free pyridinoline)
Assay type: binding
Procedure: The immunoreactivities of 51A93 and 1H11 with the calibrators and ELISA plates in the Osteomark kit and Pyrilinks Metra kit were compared. Two studies were carried out using ELISA plate assays.
In the first study, BCE calibrators from the Osteomark Kit and free pyridinoline (Pyd) from Metra were tested at different concentrations to see if either of them inhibits 51A93. Abbreviations are BCE, bone collagen equivalents; %Bo, percent bound at 0 concentration of analyte (as analyte in sample binds to antibody, the percent Bo decreases).

With N[C@@H](CC[C@@H](O)C[n+]1cc(O)c(C[C@H](N)C(=O)O)c(CC[C@H](N)C(=O)O)c1)C(=O)[O-] [Pyd, pyridinoline] the “% B0” value (Pyd 0.001 mg/ml) was 87%, the “A 450” value (Pyd 0.001 mg/ml) was 1,302 and the “% B0” value (Pyd 0.01 mg/ml) was 85%. The “A 450” value (Pyd 0.01 mg/ml) was 1,275, the “% B0” value (Pyd 0.1 mg/ml) was 89% and the “A 450” value (Pyd 0.1 mg/ml) was 1,327. The “% B0” value (Pyd 1 mg/ml) was 83%, the “A 450” value (Pyd 1 mg/ml) was 1,249 and the “inhibition of Mab 51A93 by calibrator” value (even at high levels) was “slightly inhibited”.
